Measurements: patent EP2832347B1, “Method for identifying patchouli odorant materials” (Takasago International Corporation, priority 2013, dated 2015)
Where “and” joins values, the source holds several entries; their conditions need not be identical. Identical values can stand only once.

Experiment: Long-lasting analysis on scent strip (GC-MS with internal standard)
Assay type: physicochemical
Details: for PA (GC-MS signal), sample 1-3 / Ratio PA/IS, sample 1-3: individual scent strips, listed as PA
Description: In one embodiment, the long-lasting analysis is carried out as follows: 50 µl of a 1 % solution of the identified candidate to be tested in alcohol, preferably ethanol, are applied on a scent strip, preferably a cellulosic scent strip, to be dosed. The strip is allowed to dry under ambient laboratory conditions, with normal room air movement, in particular no fan, heating or any mean or device to accelerate evaporation. After different times, each strip or at least the part of the scent strip including the area where the solution of the identified candidate to be tested was applied is extracted using 3 ml of alcohol, preferably ethanol, containing an internal standard, such as methyl decanoate. The extracts are then analyzed by gas chromatography and the result is normalized for the principal molecular ion of the identified candidate using the value for the internal standard.
50 µl of a 1 % solution of patchouli alcohol in ethanol was added by pipette to the tip to a series of different scent strips (SARL H. GRANGER-VEYRON, Privas, France). The strips were allowed to dry under ambient laboratory conditions.
After different times (t0, t0+1hour, t0+2hours, t0+4hours, t0+8hours) the tip of a strip where the 50 µl of the solution of the tested material had been applied was cut and put in a 30 ml bottle and extracted using 3 ml of ethanol, containing 50 µl of methyl decanoate as internal standard (10000 ppm solution in cyclohexane), added to each bottle. Care was taken to ensure the entire area around the point of application was included in the area that was cut and extracted. The content of the bottles was mixed for 30 min on a roller bed, and 2 ml vials were then filled with each sample.
Samples were triplicated, i.e. 3 scent strip tips were analysed for each time point.
In a first series of experiments, samples taken at t0, t0+1hour and t0+2hours were analyzed by GC-MS on a […] gas chromatography column (column BC-WAX (50m * 0.25mm * 0.15µm) which is a GC Sciences column supplied by Interchim, Montluçon, France).
In a second series of experiments, samples taken at t0, t0+4hours and t0+8hours were analyzed by GC-MS on a non-polar gas chromatography column (HP-5MS UI (30m * 0.25mm * 0.25µm) which is an Agilent column supplied by Chromoptic, Courtaboeuf, France).
In Tables 6-11, PA stands for patchouli alcohol and IS stands for the internal standard, i.e. methyl decanoate. When plotting the residual concentration of patchouli on the scent strip as a function of time, the mean ratio at t0 was normalized to 100 and then t0+1h, t0+2h, t0+4h and t0+8h were calculated; t0 being defined as 2 minutes after dosing the 50 µl of the solution of the tested material, which was applied towards the tip of the scent strip.
A "long-lasting" analysis of pogostone was performed as described in Example 5 with samples taken at t0, t0+1hour and t0+2hours.
In Tables 12-14 herebelow, POG stands for pogostone and IS stands for the internal standard, i.e. methyl decanoate. The mean ratio at t0 was normalized as described in Example 5.

[1] = t0, second series, HP-5MS UI column

**Q.** Which results are given for `C[C@H]1CC[C@@]2(O)C(C)(C)[C@@H]3CC[C@@]2(C)[C@H]1C3` [Patchouli alcohol]?
**A.** retained initial concentration (after 1 hour on scent strip): at least 10%; PA (GC-MS signal), mean value (t0+1h, BC-WAX column): 2.09E+06; Ratio PA/IS, mean value (t0+1h, BC-WAX column): 6.70E-01; PA (GC-MS signal), sample 1-3 (t0+1h, BC-WAX column): 2.10E+06 and 2.12E+06 and 2.05E+06; Ratio PA/IS, sample 1-3 (t0+1h, BC-WAX column): 6.50E-01 and 7.16E-01 and 6.43E-01; PA (GC-MS signal), mean value (t0+2h, BC-WAX column): 1.35E+06; Ratio PA/IS, mean value (t0+2h, BC-WAX column): 4.29E-01; PA (GC-MS signal), sample 1-3 (t0+2h, BC-WAX column): 1.38E+06 and 1.32E+06 and 1.35E+06; Ratio PA/IS, sample 1-3 (t0+2h, BC-WAX column): 3.74E-01 and 4.52E-01 and 4.62E-01; PA (GC-MS signal), mean value (t0+4h, HP-5MS UI column): 3.26E+06; Ratio PA/IS, mean value (t0+4h, HP-5MS UI column): 4.15E-01; PA (GC-MS signal), sample 1-3 (t0+4h, HP-5MS UI column): 3.83E+06 and 2.94E+06 and 3.00E+06; Ratio PA/IS, sample 1-3 (t0+4h, HP-5MS UI column): 4.67E-01 and 3.89E-01 (2×); PA (GC-MS signal), mean value (t0+8h, HP-5MS UI column): 1.58E+06; Ratio PA/IS, mean value (t0+8h, HP-5MS UI column): 1.86E-01; PA (GC-MS signal), sample 1-3 (t0+8h, HP-5MS UI column): 2.02E+06 and 1.37E+06 and 1.35E+06; Ratio PA/IS, sample 1-3 (t0+8h, HP-5MS UI column): 2.16E-01 and 1.77E-01 and 1.65E-01; PA (GC-MS signal), mean value (t0, BC-WAX column): 2.93E+06; Ratio PA/IS, mean value (t0, BC-WAX column): 9.67E-01; PA (GC-MS signal), sample 1-3 (t0, BC-WAX column): 2.98E+06 and 2.87E+06 and 2.94E+06; Ratio PA/IS, sample 1-3 (t0, BC-WAX column): 9.42E-01 and 9.89E-01 and 9.69E-01; PA (GC-MS signal), mean value [1]: 9.18E+06; Ratio PA/IS, mean value [1]: 1.24E+00; PA (GC-MS signal), sample 1-3 [1]: 9.37E+06 and 9.23E+06 and 8.94E+06; Ratio PA/IS, sample 1-3 [1]: 1.25E+00 and 1.22E+00 and 1.26E+00
